This is an account of results in patent EP0118571A1, “Inhibitor of aldose reductase” (Kaken Pharmaceutical Co., Ltd., priority 1983, dated 1984).

pIC50: −log10 of the molar value. Where two headings read alike, the source gives them in different places.

Experiment [1] addresses T1, rat lens AR (RLAR) (Rattus norvegicus, UniProt P07943).
T1 construct: BLAR and RLAR were purified according to the method of Inagaki et al; from tissue; host or cells: rat (Wistar) lens
Kind of experiment: Aldose reductase (AR) activity assay, rat lens AR (NADPH oxidation, DL-glyceraldehyde substrate). The experiment is classed as biochemical. As to conditions: for inhibition at 10 µM: inhibitor 10^-5M, read-out: Inhibition against enzyme activity (%) RLAR 10^-5M; for inhibition at 10 µM / inhibition at 1 µM / inhibition at 0.1 µM: 30°C, pH 6.2, 1 % propylene glycol; for inhibition at 1 µM: inhibitor 10^-6M, read-out: Inhibition against enzyme activity (%) RLAR 10^-6M; for inhibition at 0.1 µM: inhibitor 10^-7M, read-out: Inhibition against enzyme activity (%) RLAR 10^-7M; for IC50: purified RLAR, Table 2, read-out: IC50 (M) X 10^6 RLAR; for pIC50: read-out: IC50 (concentration of inhibitor needed to elicit 50 % inhibition) RLAR. Here is the method: (§1) The inhibitory activitiy against AR of LARI was determined according to the following method. As reference examples, there were employed quercitrin and two flavone derivatives having a relatively similar structure to that of LARI, i.e. 6,4'-dihydroxy-5,7,8,3'-tetramethoxyflavone and 5,4'-dihydroxy-6,7,8,3'-tetramethoxyflavone (hereinafter referred to as "Ref-1" and "Ref-2", respectively).
(§2) Rat lenses were removed from eyes of rats of the Wistar strain weighing 200 to 250 g. Bovine eyes were obtained from a local abattoir, and the lenses were removed and frozen until needed.
(§3) All compounds to be subjected to examination were dissolved in propylene glycol being a useful solvent of low toxicity for some water-insoluble drugs. A 10^-3M solution was prepared and diluted to the desired concentration with propylene glycol. To the reaction mixture were added aliquots of the diluted solution to yield concentrations of 10^-8M to 10^-5M and a propylene glycol concentration of 1 %.
(§4) AR assays were conducted according to the procedure of Hayman and Kinoshita (J. Biol. Chem. 240, p. 877 (1965)), except for the addition of ammonium sulfate instead of lithium sulfate to the reaction mixture. Assays were performed at 30°C. in 0.1 M sodium phosphate buffer (pH 6.2) containing 0.4 M ammonium sulfate, 10 mM DL-glyceraldehyde and 0.16 mM NADPH and the enzyme (0.010 to 0.016 unit) in a total volume of 1.0 ml. The effects of inhibitors on the enzyme activity were determined in the reaction mixture containing 10 µl. of each inhibitor solution at the desired concentration. The blank reference to correct for non-specific reduction of NADPH contained all of the above compounds except the above DL-glyceraldehyde. The reaction was initiated by the addition of the above DL-glyceraldehyde, and the rate of NADPH oxidation was followed by recording the decrease in absorbance at 340 nm. on a Gilford model 250 spectrophotometer.
(§5) BLAR and RLAR were purified according to the method of Inagaki et al (Archs. Biochem. Biophys. 216, p. 337 (1982)). Briefly, a 40 to 75 % ammonium sulfate fraction was subjected to chromatography on DEAE-Sephacel, followed by two column chromatographic steps, i.e. affinity chromatography using Matrex gel red A and gel filtration on Sephadex G-75.
(§6) The concentration of inhibitor needed to elicit a 50 % inhibition (IC50) was determined according to the method of Kador et al (Docum. Ophthal. Proc. Series 18, p. 117 (1979)).

The target of experiment [2] is T2, bovine lens AR (BLAR) (Bos taurus, UniProt P16116).
T2 construct: BLAR and RLAR were purified according to the method of Inagaki et al; from tissue; host or cells: bovine lens
The experiment in a line: Aldose reductase (AR) activity assay, bovine lens AR (NADPH oxidation, DL-glyceraldehyde substrate). The experiment is classed as biochemical. As to conditions: for inhibition at 10 µM: inhibitor 10^-5M, read-out: Inhibition against enzyme activity (%) BLAR 10^-5M; for inhibition at 10 µM / inhibition at 1 µM / inhibition at 0.1 µM: 30°C, pH 6.2, 1 % propylene glycol; for inhibition at 1 µM: inhibitor 10^-6M, read-out: Inhibition against enzyme activity (%) BLAR 10^-6M; for inhibition at 0.1 µM: inhibitor 10^-7M, read-out: Inhibition against enzyme activity (%) BLAR 10^-7M; for pIC50: read-out: IC50 (concentration of inhibitor needed to elicit 50 % inhibition) BLAR. As to the method:
as §1, §2, §3, §4, §5, §6

The term inhibition denotes the share of the control response that was lost under treatment. As a reminder, the IC50 is the concentration at which inhibition is half-maximal. Take `COc1c(OC)c(OC)c2c(=O)cc(-c3ccc(O)c(O)c3)oc2c1OC` [LARI, 3',4'-dihydroxy-5,6,7,8-tetramethoxyflavone]: in experiment [1], the inhibition at 10 µM was determined as 97%, the inhibition at 1 µM came out at 93%, the inhibition at 0.1 µM amounted to 78% and the half-maximal inhibitory concentration (IC50) is 3e-08 M. The pIC50 in experiment [1] is 7.44. Further, the “inhibitory activity against AR, times as potent as that of quercitrin” value in experiment [1] (relative to quercitrin, AR in general (RLAR and BLAR not distinguished)) is given as “about 17 times”. Moreover, in experiment [2], the inhibition at 10 µM amounted to 100%, the inhibition at 1 µM stood at 90%, the inhibition at 0.1 µM turned out to be 37% and the pIC50 was 6.74.
As to `COc1cc(-c2cc(=O)c3c(OC)c(O)c(OC)c(OC)c3o2)ccc1O` [Ref-1, 6,4'-dihydroxy-5,7,8,3'-tetramethoxyflavone], in experiment [1], the inhibition at 10 µM was determined as 58%, the inhibition at 1 µM is 22% and the inhibition at 0.1 µM turned out to be 6%. For the same compound, in experiment [2], the inhibition at 10 µM came out at 63%, the inhibition at 1 µM worked out at 19% and the inhibition at 0.1 µM came to 0%.
Consider `COc1cc(-c2cc(=O)c3c(O)c(OC)c(OC)c(OC)c3o2)ccc1O` [Ref-2, 5,4'-dihydroxy-6,7,8,3'-tetramethoxyflavone], for which, in experiment [1], the inhibition at 10 µM was 40%, the inhibition at 1 µM is 15% and the inhibition at 0.1 µM was found to be 0%. In addition, in experiment [2], the inhibition at 10 µM was 56%, the inhibition at 1 µM is 19% and the inhibition at 0.1 µM is 0%.
As for `C[C@@H]1O[C@@H](Oc2c(-c3ccc(O)c(O)c3)oc3cc(O)cc(O)c3c2=O)[C@H](O)[C@H](O)[C@H]1O` [quercitrin], in experiment [1], the inhibition at 10 µM was 84%, the inhibition at 1 µM was 56%, the inhibition at 0.1 µM was found to be 38% and the half-maximal inhibitory concentration (IC50) was found to be 4.9e-07 M. The pIC50 in experiment [1] was 6.31. In experiment [2], the inhibition at 10 µM came to 66%, the inhibition at 1 µM came out at 32%, the inhibition at 0.1 µM was found to be 0% and the pIC50 is 5.48. The half-maximal inhibitory concentration (IC50) in experiment [2] (purified BLAR, Table 2, read-out: IC50 (M) X 10^6 BLAR) worked out at 3.3e-06 M.
